Reference: patent publication US20250282774A1, “FUSED RING COMPOUND” (SHANGHAI SHIJIANG BIOTECHNOLOGY CO., LTD., priority 2022, published 2025)

What was measured:
[1] = system: mPTP-inactive Daoy cell; experiment: Cell viability (Promega CellTiter-Glo), mPTP-inactive Daoy cell; type: cell-based; settings: Homo sapiens, Daoy cell transfected with PPIF shRNA vector
[2] = system: mPTP-active Daoy cell; experiment: Cell viability (Promega CellTiter-Glo), mPTP-active Daoy cell; type: cell-based; settings: Homo sapiens, Daoy cell transfected with empty virus vector
[3] = system: sh-DNMT1 NCI-H82 cell; experiment: Cell viability (Promega CellTiter-Glo), sh-DNMT1 NCI-H82 cell; type: cell-based; settings: Homo sapiens, NCI-H82 cell with DNMT1 knocked down
From the text: (§1) The expression of NNMT protein in NCI-H82 cell was overexpressed by inserting the NNMT gene into NCI-H82 cell using a viral vector, and the NNMT protein-overexpressing NCI-H82 cell (ov-NNMT NCI-H82 cell) was obtained. The expression of DNMT1 in NCI-H82 cell was knocked down by transfecting shRNA (the nucleotide sequence of shRNA was […] (SEQ ID No: 3)) using a viral vector, and the NCI-H82 cell with low expression of DNMT1 protein (sh-DNMT1 NCI-H82 cell) was obtained. The control NCI-H82 cell (Con-NCI-H82 cell) was obtained by transfecting NCI-H82 cell with empty virus vector without carrying NNMT gene and shRNA. The expressing content of NNMT protein and DNMT1 protein in the Con-NCI-H82 cell, the expressing content of NNMT protein in the ov-NNMT NCI-H82 cell, and the expressing content of DNMT1 protein in the sh-DNMT1 NCI-H82 cell were detected using Western Blot assay (as shown in FIG. 3 and FIG. 4), it could be seen from FIG. 3 and FIG. 4 that the NNMT protein was overexpressed in the ov-NNMT NCI-H82 cell and the expression of DNMT1 protein was knocked down (i.e, low expression) in the sh-DNMT1 NCI-H82 cell compared with the expression level of NNMT protein and DNMT1 protein in the Con-NCI-H82 cell.

[4] = system: Con-NCI-H82 cell; experiment: Cell viability (Promega CellTiter-Glo), Con-NCI-H82 cell; type: cell-based; settings: Homo sapiens, NCI-H82 cell transfected with empty virus vector
From the text: as §1

[5] = system: ov-NNMT NCI-H82 cell; experiment: Cell viability (Promega CellTiter-Glo), ov-NNMT NCI-H82 cell; type: cell-based; settings: Homo sapiens, NCI-H82 cell overexpressing NNMT protein
From the text: as §1

[6] = system: Daoy cell; experiment: Mitochondria membrane potential difference by TMRM in Daoy cell (mPTP activity); type: cell-based, human; settings: H2O2 +, CsA −
From the text: For cells with active mitochondria permeability transition pore, adding peroxide (such as H2O2) could increase the activity of mitochondria permeability transition pore, resulting in a decrease in mitochondria membrane potential.

[7] = system: Daoy cell transfected with empty virus vector without carrying shRNA; experiment: Mitochondria membrane potential difference by TMRM in Daoy cell transfected with empty virus vector (Con shRNA); type: cell-based, human; settings: H2O2 +, CsA −
[8] = system: Daoy cell transfected with virus vector carrying shRNA that could specifically induce the degradation of PPIF mRNA; experiment: Mitochondria membrane potential difference by TMRM in Daoy cell transfected with PPIF shRNA; type: cell-based, human; settings: H2O2 +, CsA −

Row | IC50 [3] [µM] | IC50 [4] [µM] | IC50 [5] [µM] | Compound | IC50 [1] [nM] | IC50 [2] [µM] | Relative TMRM signal intensity (%) in Daoy cell after different treatments, mean value [6] [%] | Relative TMRM signal intensity (%), mean value [7] [%] | Relative TMRM signal intensity (%), mean value [8] [%]
1 | 5.96 | 1.57 | 3.48 | COc1ccc2cc3[n+](cc2c1N1CCC(F)CC1)CCc1cc2c(cc1-3)OCO2 [Compound AB35551] | 1970 | 5.82 | – | – | –
2 | 2.03 | 0.32 | 0.88 | COc1ccc2cc3[n+](cc2c1N1CCC(C(F)(F)F)CC1)CCc1cc2c(cc1-3)OCO2 [Compound SJ0002] | 1560 | 5.13 | – | – | –
3 | 2.96 | 0.74 | 1.94 | COc1ccc2cc3[n+](cc2c1N1CCC(Cl)CC1)CCc1cc2c(cc1-3)OCO2 [Compound SJ0004] | 2410 | 7.45 | – | – | –
4 | 2.19 | 0.37 | 1.02 | COc1ccc2cc3[n+](cc2c1N1CCCC1)CCc1cc2c(cc1-3)OCO2 [Compound AB35555] | 450 | 1.58 | – | – | –
5 | – | – | – | OO [Compound H2O2, H2O2] | – | – | 82 | 79 | 95
6 | 1.33 | 0.18 | 0.55 | COc1ccc2cc3[n+](cc2c1N1CCC(C)CC1)CCc1cc2c(cc1-3)OCCO2 [Compound SJ0009] | 470 | 2.06 | – | – | –
7 | 1.46 | 0.21 | 0.68 | COc1ccc2cc3[n+](cc2c1N1CCCCC1)CCc1cc2c(cc1-3)OCO2 [Compound AB36492] | 460 | 1.65 | – | – | –
8 | 3.88 | 0.97 | 2.35 | COc1ccc2cc3[n+](cc2c1N1CCC(Cl)CC1)CCc1cc2c(cc1-3)OCCO2 [Compound SJ0012] | 2080 | 6.96 | – | – | –
9 | 9.86 | 2.57 | 5.85 | COc1ccc2cc3[n+](cc2c1N1CCC(F)(F)CC1)CCc1cc2c(cc1-3)OCO2 [Compound AB35556] | 3140 | 7.31 | – | – | –
10 | 2.54 | 0.45 | 0.89 | COc1ccc2cc3[n+](cc2c1N1CCC(C(F)(F)F)CC1)CCc1cc2c(cc1-3)OCCO2 [Compound SJ0010] | 2090 | 6.33 | – | – | –
11 | 19 | 5.05 | 10.4 | COc1ccc2cc3[n+](cc2c1N1CCOC(C)C1)CCc1cc2c(cc1-3)OCO2 (stereo not drawn) [Compound AB35540] | 5850 | 15.7 | – | – | –
12 | 14.8 | 4.07 | 8.96 | COc1ccc2cc3[n+](cc2c1N1CCC2(CCO2)CC1)CCc1cc2c(cc1-3)OCO2 [Compound AB35575] | 5850 | 26.7 | – | – | –
13 | 1.58 | 0.29 | 0.85 | COc1ccc2cc3[n+](cc2c1N1CCCCCC1)CCc1cc2c(cc1-3)OCO2 [Compound AB36413] | 320 | 1.26 | – | – | –
14 | 1.12 | 0.14 | 0.58 | COc1ccc2cc3[n+](cc2c1N1CCC(C)CC1)CCc1cc2c(cc1-3)OCO2 [Compound SJ0001] | 520 | 1.35 | – | – | –
15 | 1.76 | 0.32 | 0.72 | COc1ccc2cc3[n+](cc2c1N1CCCC(C)C1)CCc1cc2c(cc1-3)OCO2 (stereo not drawn) [Compound AB35530] | 550 | 2.43 | – | – | –
16 | 1.48 | 0.27 | 0.68 | COc1ccc2cc3[n+](cc2c1N1CCCCC1C)CCc1cc2c(cc1-3)OCO2 (stereo not drawn) [Compound AB35528] | 420 | 1.49 | – | – | –
